Structures can show the parent of a compound that is named as a salt. Where two headings read alike, the source gives them in different places.

Experiment [1] has as its target T1, human NTCP (Homo sapiens, UniProt Q14973).
T1 sequence (Q14973 1-349): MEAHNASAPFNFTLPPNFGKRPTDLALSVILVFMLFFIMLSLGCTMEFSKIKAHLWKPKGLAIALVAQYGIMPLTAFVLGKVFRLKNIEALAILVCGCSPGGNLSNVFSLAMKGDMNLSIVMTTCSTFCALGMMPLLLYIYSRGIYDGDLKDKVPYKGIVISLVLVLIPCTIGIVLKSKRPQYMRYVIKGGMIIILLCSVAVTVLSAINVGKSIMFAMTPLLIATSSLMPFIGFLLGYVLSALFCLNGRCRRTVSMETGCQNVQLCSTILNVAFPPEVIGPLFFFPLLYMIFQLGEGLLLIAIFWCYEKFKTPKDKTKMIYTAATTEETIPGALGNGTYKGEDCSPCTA
Briefly: Screening taurocholate uptake assay (96-well, [14C]taurocholate, 10 µM drug).

For experiment [2], the target named is T1, human NTCP. The experiment is described as follows: Screening fluorescent competitive Myrcludex B-FITC binding assay (96-well, 10 µM drug).
Setting [3] is: combined ranking from functional and binding screening assays.
[4] abbreviates: screen, 10 µM drug, taurocholate uptake.
Setting [5] is: screen, 10 µM drug, Myrcludex B-FITC binding.
Setting [6] is: Prestwick library screen, 10 µM drug, B-score of taurocholate uptake.
Setting [7] is: combined ranking from functional and binding assay B-scores.
Setting [8] is: Prestwick library screen, 10 µM drug, B-score of Myrcludex B-FITC binding.
The mark [9] stands for this setting: Prestwick library screen, taurocholate uptake, 10 µM drug.
Setting [10] is: ranking score beside the functional and binding assay B-scores of the screen.
The mark [11] stands for this setting: Prestwick library screen, Myrcludex B-FITC binding, 10 µM drug.

For `CCN1CCCC(OC(=O)C(c2ccccc2)c2ccccc2)C1` (centres unmarked) [Piperidolate hydrochloride], the Ranking score in experiment [1] (setting [3]) came out at 357.281. Moreover, in experiment [1] (setting [4]), the B-score functional assay is reported as 1.475. In experiment [2] (setting [5]), the B-score binding assay is given as -1.968.
In experiment [1] (setting [6]), `NC[C@H]1O[C@H](O[C@H]2[C@H](O[C@@H]3O[C@H](CO)[C@@H](O)[C@H]3O)[C@@H](O)[C@H](N)C[C@@H]2N)[C@H](N)[C@@H](O)[C@@H]1O.O=S(=O)(O)O` [Ribostamycin sulfate salt] registered a B-score functional assay of 0.797. Besides, in experiment [1] (setting [7]), the Ranking score turned out to be 1035.72. This compound yielded a B-score binding assay in experiment [2] (setting [8]) of 1.097.
Tyloxapol returned a B-score functional assay in experiment [1] (setting [4]) of -1.163. The compound also registered a B-score binding assay in experiment [2] (setting [5]) of 0.59.
For `CN(C)CCOC1=Cc2ccccc2Sc2ccc(Cl)cc21` [Zotepine], in experiment [1] (setting [6]), the B-score functional assay was 0.249. In addition, the Ranking score in experiment [1] (setting [7]) was found to be 950.167. Besides, in experiment [2] (setting [8]), the B-score binding assay stood at 1.26.
For `COc1cccc(N(C)C(=S)Oc2ccc3c(c2)CCCC3)n1` [Liranaftate] the same measures were 0.374, 904.804 and 0.615.
For `CCn1cc(C(=O)O)c(=O)c2cc(F)c(N3CCNCC3)nc21` [Enoxacin], in that order: 3.277, 1072.03 and 0.523.
In experiment [1] (setting [6]), `CC(C)NCC(O)c1ccc(NS(C)(=O)=O)cc1` (centres unmarked) [Sotalol hydrochloride] yielded a B-score functional assay of 0.17. The Ranking score in experiment [1] (setting [7]) is reported as 866.77. In experiment [2] (setting [8]), the B-score binding assay came to 0.649.
For `S=C(NC1CCCCC1)N1CCC(c2cnc[nH]2)CC1` [Thioperamide maleate], in experiment [1] (setting [3]), the Ranking score is listed as 451.504. This compound returned a B-score functional assay in experiment [1] (setting [4]) of -0.893. Also, the B-score binding assay in experiment [2] (setting [5]) was determined as 0.108.
`CC(Cc1cccc(C(F)(F)F)c1)NCCOC(=O)c1ccccc1` (centres unmarked) [Benfluorex] showed a B-score functional assay in experiment [1] (setting [6]) of 0.848. Further, the Ranking score in experiment [1] (setting [7]) was determined as 1033.89. Besides, in experiment [2] (setting [8]), the B-score binding assay turned out to be 1.025.
On to `O=C(O)CCc1nc(-c2ccccc2)c(-c2ccccc2)o1` [Oxaprozin], for which the Ranking score in experiment [1] (setting [3]) is reported as 341.015. Besides, the B-score functional assay in experiment [1] (setting [4]) is -0.957. The compound further showed a B-score binding assay in experiment [2] (setting [5]) of -0.29.
For `CCN[C@@H](C)Cc1cccc(C(F)(F)F)c1` [Dexfenfluramine hydrochloride] the same measures were 401.597, -0.697 and -0.169.
For `Cc1cc(C(C)(C)C)cc(C)c1CC1=NCCN1` [Xylometazoline hydrochloride] the same measures were 287.23, -0.462 and -1.17.
For `CCOC1O[C@H]([C@@H](COCc2ccccc2)OCc2ccccc2)[C@H](OCc2ccccc2)[C@H]1O` (some centres unmarked) [Tribenoside] the same measures were 300.985, -1.789 and -0.023.
The compound `Nc1c2c(nc3ccccc13)CCCC2` [Tacrine hydrochloride] yielded a B-score functional assay in experiment [1] (setting [9]) of -0.044. Besides, in experiment [1] (setting [10]), the Ranking score stood at 757.813. The compound also had a B-score binding assay in experiment [2] (setting [11]) of 0.755.
`NC(=O)CN1CCCC1=O` [Piracetam] had a B-score functional assay in experiment [1] (setting [9]) of 0.881. The compound further came in with a Ranking score in experiment [1] (setting [10]) of 661.843. The compound further came in with a B-score binding assay in experiment [2] (setting [11]) of -0.345.
`CC(NCCc1ccc(O)cc1)C(O)c1ccc(O)cc1` (centres unmarked) [Ritodrine hydrochloride]: the B-score functional assay in experiment [1] (setting [6]) turned out to be 1. Moreover, the Ranking score in experiment [1] (setting [7]) amounted to 1111.92. The B-score binding assay in experiment [2] (setting [8]) turned out to be 1.66.
In experiment [1], `CC(N)C(O)c1ccccc1` (centres unmarked) [Phenylpropanolamine hydrochloride] returned a B-score functional assay of 0.305 and a Ranking score of 449.533. In experiment [2], this compound yielded a B-score binding assay of -0.994.
With `CC(=O)O[C@]1(C(C)=O)CC[C@H]2[C@@H]3C=C(C)C4=CC(=O)CC[C@@H]4[C@H]3CC[C@@]21C` [Nomegestrol acetate], the Ranking score in experiment [1] (setting [3]) came out at 298.149. For the same compound, in experiment [1] (setting [4]), the B-score functional assay was -2.71. Besides, the B-score binding assay in experiment [2] (setting [5]) is on record as 1.174.
For `COc1cc([C@@H]2c3cc4c(cc3[C@@H](O[C@@H]3O[C@@H]5CO[C@@H](C)O[C@H]5[C@H](O)[C@H]3O)[C@H]3COC(=O)[C@H]23)OCO4)cc(OC)c1O` [Etoposide], in that order: 333.467, -1.678 and 0.046.
In experiment [1] (setting [9]), `CN(C)CCCN1c2ccccc2CCc2ccc(Cl)cc21` [Clomipramine hydrochloride] gave a B-score functional assay of 4.061. Also, the Ranking score in experiment [1] (setting [10]) is given as 759.266. The compound further yielded a B-score binding assay in experiment [2] (setting [11]) of -0.277.
Take `CN1CCC(=C2c3ccccc3CCc3cccnc32)CC1` [Azatadine maleate]: the B-score functional assay in experiment [1] (setting [6]) is reported as 0.678. For the same compound, the Ranking score in experiment [1] (setting [7]) is reported as 1070.86. For the same compound, the B-score binding assay in experiment [2] (setting [8]) is on record as 1.844.
As to `CN(C)CCC=C1c2ccccc2CCc2ccccc21.Cl` [Amitryptiline hydrochloride], the B-score functional assay in experiment [1] (setting [9]) is -0.217. In experiment [1] (setting [10]), this compound returned a Ranking score of 769.935. This compound also showed a B-score binding assay in experiment [2] (setting [11]) of 2.835.
In experiment [1] (setting [9]), `CCN[C@H]1CN(CCCOC)S(=O)(=O)c2sc(S(N)(=O)=O)cc21` [Brinzolamide] had a B-score functional assay of 0.266. This compound also showed a Ranking score in experiment [1] (setting [10]) of 792.227. The compound also registered a B-score binding assay in experiment [2] (setting [11]) of 0.124.
As for `C[C@]12C[C@H](O)[C@H]3[C@@H](CCC4=CC(=O)CC[C@@]43C)[C@@H]1CC[C@@H]2C(=O)CO` [Corticosterone], in experiment [1] (setting [3]), the Ranking score is 434.757. The compound also showed a B-score functional assay in experiment [1] (setting [4]) of 1.754. The compound further yielded a B-score binding assay in experiment [2] (setting [5]) of -1.468.
As for `CC[C@@H]1C(=O)OC[C@@H]1Cc1cncn1C` [Pilocarpine nitrate], the B-score functional assay in experiment [1] (setting [6]) came out at 0.794. Further, the Ranking score in experiment [1] (setting [7]) came out at 931.987. The B-score binding assay in experiment [2] (setting [8]) is reported as 0.358.
For the compound `CC(=O)O[C@]1(C(C)=O)CC[C@H]2[C@@H]3C=C(Cl)C4=CC(=O)[C@@H]5C[C@@H]5[C@]4(C)[C@H]3CC[C@@]21C` [Cyproterone acetate], the B-score functional assay in experiment [1] (setting [9]) is on record as -0.245. In addition, the Ranking score in experiment [1] (setting [10]) is recorded as 678.19. The B-score binding assay in experiment [2] (setting [11]) came to 0.796.
For `CC1(C)O[C@@H]2C[C@H]3[C@@H]4C[C@H](F)C5=CC(=O)C=C[C@]5(C)[C@H]4[C@@H](O)C[C@]3(C)[C@]2(C(=O)CO)O1` [Flunisolide] the same measures were 0.152, 805.548 and 0.284.
For `COc1ccccc1Oc1c(NS(=O)(=O)c2ccc(C(C)(C)C)cc2)nc(-c2ncccn2)nc1OCCO` [Bosentan], in that order: 0.07, 688.78 and 0.008.
`CCN(CC)C(=O)Nc1ccc(OCC(O)CNC(C)(C)C)c(C(C)=O)c1` (centres unmarked) [Celiprolol HCl] came in with a B-score functional assay in experiment [1] (setting [6]) of 0.793. Besides, the Ranking score in experiment [1] (setting [7]) came to 1068.26. The compound also came in with a B-score binding assay in experiment [2] (setting [8]) of 1.474.
As for `CN1CCN2c3ccccc3Cc3ccccc3C2C1.Cl` (centres unmarked) [Mianserine hydrochloride], in experiment [1] (setting [9]), the B-score functional assay is given as 0.041. Also, the Ranking score in experiment [1] (setting [10]) stood at 825.955. Also, in experiment [2] (setting [11]), the B-score binding assay came out at 0.761.
`CCCCC[C@H](O)/C=C/[C@H]1[C@H](O)CC(=O)[C@@H]1CCCCCCC(=O)O` [Alprostadil] gave a B-score functional assay in experiment [1] (setting [9]) of 0.966. Besides, in experiment [1] (setting [10]), the Ranking score is recorded as 841.475. The same compound yielded a B-score binding assay in experiment [2] (setting [11]) of 0.02.
As to `O=C(O)c1ccccc1OP(=O)(O)O` [Fosfosal], the Ranking score in experiment [1] (setting [3]) is listed as 393.853. Further, the B-score functional assay in experiment [1] (setting [4]) is -0.869. In experiment [2] (setting [5]), this compound yielded a B-score binding assay of -0.072.
In the case of `C[C@]12CC[C@H]3[C@@H](CCC4=CC(=O)CC[C@@H]43)[C@@H]1CC[C@@H]2O` [Nandrolone], in experiment [1], the B-score functional assay is 0.05 and the Ranking score stood at 852.366. Moreover, the B-score binding assay in experiment [2] came to 0.982.
In experiment [1] (setting [9]), `[H]/N=C(/N)NS(=O)(=O)c1ccc(N)cc1` [Sulfaguanidine] yielded a B-score functional assay of -0.516. Moreover, the Ranking score in experiment [1] (setting [10]) is on record as 669.134. In experiment [2] (setting [11]), the B-score binding assay came to 2.333.
For `O=C(CCCN1CCC(O)(c2ccc(Br)cc2)CC1)c1ccc(F)cc1` [Bromperidol] the same measures were 0.496, 757.533 and -0.002.
Turning to `CCOC(=O)[C@@](C)(N)Cc1ccc(O)c(O)c1` [Methyldopate hydrochloride], the B-score functional assay in experiment [1] (setting [6]) amounted to 0.673. Moreover, in experiment [1] (setting [7]), the Ranking score came out at 1088.5. Moreover, in experiment [2] (setting [8]), the B-score binding assay amounted to 2.397.
Turning to `CC[C@@H](C(N)=O)N1CCCC1=O` [Levetiracetam], the B-score functional assay in experiment [1] (setting [9]) was -0.058. In experiment [1] (setting [10]), this compound returned a Ranking score of 657.267. Moreover, the B-score binding assay in experiment [2] (setting [11]) is on record as 0.117.

The values above are taken from article PMC5681660, “Reduced hepatitis B and D viral entry using clinically applied drugs as novel inhibitors of the bile acid transporter NTCP” (Scientific Reports, 2017).
